Results on 1 molecule are retold here after patent publication US20150072856A1, “ADJUVANTS BASED ON OPTIONALLY ALKOXYLATED REACTION PRODUCTS OF GLYCEROL CARBONATE AND ALKYLAMINES” (BASF SE, priority 2012, published 2015).

Format in all cases: in vivo
Holding throughout (conditions): 300 g/ha adjuvant, 375 l/ha tank mix, score vs untreated plants

One test has as its system rapeseed. In words: Greenhouse herbicidal activity of glyphosate tank mix with adjuvant on rapeseed. The procedure:
(§1) An aqueous formulation (SL type) was prepared by dissolving 52.3 wt % potassium glyphosate in water. As adjuvant the ethoxylated (10 equivalents) carbamate from Example 1 was added and dissolved in the resulting SL formulation. This SL formulation was diluted with water to prepare a tank mix, which contained 0.8 g/l of the adjuvant, 0.75 g/l of the potassium glyphosate (or as alternative tank mix 0.37 g/l). This tankmix may be applied at 375 l/ha (corresponding to 300 g/ha adjuvant and 280 g/ha glyphosate (or 140 g/ha as alternative).
(§2) For the greenhouse tests, various crops (winter wheat (cultivar Cubus), maize (cultivar Amadeo), soybean (cultivar Delta P.), rapeseed) was sown or potted in loamy sandy soil to a depth of 1-2 cm. When the plants had reached a growth height of 10 to 25 cm (i.e., around 10 to 21 days after sowing), the spray mixtures were applied to the plants in a spraying cabin.
(§3) The tank mix prepared in Example 7 was applied at a application rate of 375 l/ha (140 or 280 g of glyphosate/ha and 300 g of adjuvant/ha). The temperatures in the experimental period, which lasted for 3 to 4 weeks, were between 18-35° C. […]
(§4) The herbicidal activity was evaluated by awarding scores to the treated plants in comparison to the untreated control plants (Table 1 and 2). […]

In another test the test system is maize (cultivar Amadeo). In words: Greenhouse herbicidal activity of glyphosate tank mix with adjuvant on maize. As to the method:
as §1, §2, §3, §4

The test system of test [1] is winter wheat (cultivar Cubus). Kind of test: Greenhouse herbicidal activity of glyphosate tank mix with adjuvant on wheat. As to the method:
as §1, §2, §3, §4

Test [2] concerns soybean (cultivar Delta P.). Kind of test: Greenhouse herbicidal activity of glyphosate tank mix with adjuvant on soybean. The procedure: as §1, §2, §3, §4

Turning to `O=C(O)CNCP(=O)([O-])O.[K+]` [—, potassium glyphosate], the “Activity [%] after 21 days DAT, Rapeseed” value with rapeseed (140 g/ha glyphosate) and with rapeseed (280 g/ha glyphosate) was 0% each time. The “Activity [%] after 21 days DAT, Maize” value is recorded as 13% with maize (cultivar Amadeo) (140 g/ha glyphosate) and 63% in the test on maize (cultivar Amadeo) (280 g/ha glyphosate). For the same molecule, the figures for the “Activity [%] after 21 days DAT, Wheat” value in test [1] (140 g/ha glyphosate) and in test [1] (280 g/ha glyphosate) were 8% and 31%, respectively. Besides, the “Activity [%] after 21 days DAT, Soybean” value in test [2] (140 g/ha glyphosate) and in test [2] (280 g/ha glyphosate) was 0% each time.
